From the CheMixHub viscosity set

Assay: xn = mol fraction of the nth substance listed

CO + O
Conditions	viscosity [mPa·s]
293.15 K, 100 kPa, x1 = 0.2	1.801
293.15 K, 100 kPa, x1 = 0.3	1.845
293.15 K, 100 kPa, x1 = 0.4	1.764
293.15 K, 101 kPa, x1 = 0.055	1.262
293.15 K, 101 kPa, x1 = 0.129	1.651
293.15 K, 101 kPa, x1 = 0.232	1.836
293.15 K, 101 kPa, x1 = 0.487	1.555
293.15 K, 101 kPa, x1 = 0.541	1.418
293.15 K, 101 kPa, x1 = 0.625	1.23
293.15 K, 101 kPa, x1 = 0.642	1.186
293.15 K, 101 kPa, x1 = 0.903	0.745
293.15 K, 101.3 kPa, x1 = 0.05886	1.276
293.15 K, 101.3 kPa, x1 = 0.05892	1.276
293.15 K, 101.3 kPa, x1 = 0.1014	1.465
293.15 K, 101.3 kPa, x1 = 0.1021	1.453
293.15 K, 101.3 kPa, x1 = 0.1493	1.628
293.15 K, 101.3 kPa, x1 = 0.1972	1.742
293.15 K, 101.3 kPa, x2 = 0.0969	0.743
293.15 K, 101.3 kPa, x2 = 0.2006	0.916
293.15 K, 101.3 kPa, x2 = 0.3002	1.105
293.15 K, 101.3 kPa, x2 = 0.4001	1.314
293.15 K, 101.3 kPa, x2 = 0.5	1.501
293.15 K, 101.3 kPa, x2 = 0.7	1.837
293.15 K, 101.3 kPa, x2 = 0.85	1.705
293.15 K, 101.3 kPa, x2 = 0.9	1.528
293.15 K, 101.3 kPa, x2 = 0.95	1.278
298.15 K, 101 kPa, x1 = 0.0519	1.129
298.15 K, 101 kPa, x1 = 0.0845	1.264
298.15 K, 101 kPa, x1 = 0.125	1.385
298.15 K, 101 kPa, x1 = 0.217	1.576
298.15 K, 101 kPa, x1 = 0.274	1.59
298.15 K, 101 kPa, x1 = 0.465	1.35
298.15 K, 101 kPa, x1 = 0.702	1.03
298.15 K, 101 kPa, x2 = 0.9413	1.1
298.15 K, 101.3 kPa, x1 = 0.1021	1.3
298.15 K, 101.3 kPa, x1 = 0.1233	1.392
298.15 K, 101.3 kPa, x1 = 0.2727	1.595
298.15 K, 101.3 kPa, x1 = 0.3599	1.534
298.15 K, 101.3 kPa, x1 = 0.4576	1.401
298.15 K, 101.3 kPa, x1 = 0.5675	1.218
298.15 K, 101.3 kPa, x1 = 0.6922	1.005
298.15 K, 101.3 kPa, x1 = 0.835	0.782
298.15 K, 101.3 kPa, x1 = 0.9144	0.659
298.15 K, 101.33 kPa, x1 = 0.03958	1.055
298.15 K, 101.33 kPa, x1 = 0.05923	1.157
298.15 K, 101.33 kPa, x1 = 0.1332	1.403
298.15 K, 101.33 kPa, x1 = 0.2396	1.6
298.15 K, 101.33 kPa, x1 = 0.2551	1.575
298.15 K, 101.33 kPa, x1 = 0.2785	1.57
298.15 K, 101.33 kPa, x1 = 0.3255	1.57
298.15 K, 101.33 kPa, x1 = 0.3558	1.532
298.15 K, 101.33 kPa, x1 = 0.3863	1.49
298.15 K, 101.33 kPa, x1 = 0.4426	1.427
298.15 K, 101.33 kPa, x1 = 0.4685	1.37
298.15 K, 101.33 kPa, x1 = 0.5278	1.282
298.15 K, 101.33 kPa, x1 = 0.6055	1.167
298.15 K, 101.33 kPa, x1 = 0.6583	1.105
303.15 K, 101 kPa, x1 = 0.055	0.978
303.15 K, 101 kPa, x1 = 0.129	1.245
303.15 K, 101 kPa, x1 = 0.176	1.313
303.15 K, 101 kPa, x1 = 0.256	1.37
303.15 K, 101 kPa, x1 = 0.487	1.218
303.15 K, 101 kPa, x1 = 0.541	1.126
303.15 K, 101 kPa, x1 = 0.642	0.974
303.15 K, 101 kPa, x1 = 0.903	0.63
303.15 K, 101.3 kPa, x1 = 0.0588	1.015
303.15 K, 101.3 kPa, x1 = 0.1233	1.206
303.15 K, 101.3 kPa, x1 = 0.2727	1.381
303.15 K, 101.3 kPa, x1 = 0.4576	1.239
303.15 K, 101.3 kPa, x1 = 0.5675	1.085
303.15 K, 101.3 kPa, x1 = 0.6922	0.907
303.15 K, 101.3 kPa, x1 = 0.835	0.714
303.15 K, 101.3 kPa, x1 = 0.9144	0.612
303.15 K, 101.3 kPa, x2 = 0.0969	0.634
303.15 K, 101.3 kPa, x2 = 0.1	0.618
303.15 K, 101.3 kPa, x2 = 0.2006	0.768
303.15 K, 101.3 kPa, x2 = 0.208	0.755
303.15 K, 101.3 kPa, x2 = 0.3002	0.906
303.15 K, 101.3 kPa, x2 = 0.3041	0.878
303.15 K, 101.3 kPa, x2 = 0.4001	1.062
